In patent US4029881A, “Antibiotic 9-acyl-3"-thiomethoxymethyl-SF-837 composition and process for preparing the same” (Meiji Seika Co., Ltd., priority 1972, dated 1977):
Converted amounts (≈) assume the structure as drawn. Read-outs that look alike come from different tables or passages of the source.

How the values were obtained:
[1] = system: Staphylococcus aureus Strain 209-P; assay: therapeutic effect on staphylococcal infection of mice (Table 2); type: in vivo; details: 350mg/Kg oral; intraperitoneal infection by Staphylococcus aureus 209-P
Excerpt: Since the 9-acyl-3"-thiomethoxymethyl-SF-837 substance is inhibitory against Gram-positive bacteria as the SF-837 substance is, it is as well available as an antimicrobial agent. Particularly, it is notable that the in vitro antimicrobial activity of the 9-acyl-3"-thiomethoxymethyl-SF-837 substance of the present invention against Escherichia coli, Mycobacterium, Mycoplasma, and macrolide-resistant Mycoplasma is higher than that of the SF-837 substance. Furthermore, the results of the therapeutic tests using the mice infected by Staphylococcus aureus Strain 209 P was better with the said 9-acyl-3"-thiomethoxymethyl-SF-837 substance than with its parent substance (see Table 2).
Therapeutic effect of the 9-acyl-3"thiomethoxy-methyl-SF-837 substance made according to the invention on the staphylococcal infection of mice in laboratory*).
*)Infection of mouse intraperitoneally by Staphylococcus aureus Strain

acute toxicity = type: in vivo, ICR-JCL mice; details: intraperitoneal, male mice, dead/tested
Excerpt: The acute toxicity of the 9-acyl-3"-thiomethoxymethyl-SF-837 substance
Animals tested: ICR-JCL mice, male.
Samples: Each substance was suspended in a 5% aqueous arabic gum solution.
Method of administration: Intraperitoneal injection.

[2] = system: Neisseria gonorrhoeae Megurita; assay: antimicrobial spectrum, minimal inhibitory concentration; type: cell-based
Excerpt: (§1) The antimicrobial spectrum of the 9-acyl-3"-thiomethoxymethyl-SF-837 substance obtained according to the present invention is shown in Table 1.
(§2) The antimicrobial spectrum of the 9-acetyl- and 9-propionyl-3"-thiomethoxymethyl-SF-837 substance made according to the invention.

Mycobacterium 607 = assay: as above; type: cell-based
Excerpt: as §1, §2

[3] = system: Mycoplasma gallisepticum S-15P; assay: as above; type: cell-based; details: Mycoplasmoides gallisepticum, read-out: Minimal Inhibitory Concentration
Excerpt: as §1, §2

[4] = system: Mycoplasma gallisepticum CH3T; assay: as above; type: cell-based; details: Mycoplasmoides gallisepticum
Excerpt: as §1, §2

Vibrio coli SD-358 = assay: as above; type: cell-based; details: Campylobacter coli, SD358
Excerpt: as §1, §2

Escherichia coli = assay: as above; type: cell-based
Excerpt: as §1, §2

Staphylococcus aureus = assay: as above; type: cell-based
Excerpt: as §1, §2

[5] = system: Mycoplasma gallisepticum S-6; assay: as above; type: cell-based; details: Mycoplasmoides gallisepticum, S6
Excerpt: as §1, §2

[6] = system: Mycoplasma gallisepticum KP-13; assay: as above; type: cell-based; details: Mycoplasmoides gallisepticum, KP13
Excerpt: as §1, §2

[7] = system: Mycoplasma gallisepticum S-35P; assay: as above; type: cell-based; details: Mycoplasmoides gallisepticum, read-out: Minimal Inhibitory Concentration
Excerpt: as §1, §2

[8] = system: Mycoplasma gallisepticum KP-3; assay: as above; type: cell-based; details: Mycoplasmoides gallisepticum, KP3
Excerpt: as §1, §2

Neisseria meningitidis = assay: as above; type: cell-based
Excerpt: as §1, §2

Vibrio coli 34E = assay: as above; type: cell-based; details: Campylobacter coli
Excerpt: as §1, §2

Vibrio coli SD-362 = assay: as above; type: cell-based; details: Campylobacter coli, SD362
Excerpt: as §1, §2

[9] = system: Mycoplasma gallisepticum T-4AT (tyrosine-resistant); assay: microbe, parasite or virus in culture; type: cell-based; details: Mycoplasmoides gallisepticum, read-out: Minimal Inhibitory Concentration
Excerpt: as §1, §2

[10] = system: Streptococcus pyrogenes Ti-125 Gr-A Type I; assay: therapeutic effect, treatment of animals infected by Streptococcus (Table 3 B); type: in vivo, ICR-JCL mouse; details: orally once, 5LD50
Procedure: B. treatment of animals infected by Streptococcus
Animals tested: The same as in A.
Method of administration: The same as in A.
Bacterium inoculated: Streptococcus pyrogenes Ti-125 Gr-A Type I.
Inoculum size: 1× 10^7 cells/0.5 ml/mouse(5LD50).

[11] = system: Staphylococcus aureus 209-P; assay: therapeutic effect, treatment of animals infected by Staphylococcus (Table 3 A); type: in vivo, ICR-JCL mouse; details: orally once, 10 LD50
Excerpt: Therapeutic effect of the 9-acyl-3"-thiomethoxymethyl-SF-837 substance against bacterial infections.
A. treatment of animals infected by Staphylococcus. Animals tested: ICR-JCL mouse, 4-week old, male, 10 heads for each group.
Bacterium inoculated: Staphylococcus aureus 209-P.
Method of administration: Samples were suspended in a sterilized 2% aqueous gum arabic solution and administered once to the mice inoculated with the bacterium.

[12] = S15P, Mycoplasma gallisepticum S-15P
[13] = S35P, Mycoplasma gallisepticum S-35P

SMILES | Survival rate in a week after oral administration [1] [%] | Mortality (acute toxicity; 2,000 mg/Kg) | Mortality (acute toxicity; 4,000 mg/Kg) | MIC [2] [µg/mL] | MIC (Mycobacterium 607) [µg/mL] | MIC [4] [µg/mL] | MIC (Vibrio coli SD-358) [µg/mL] | MIC (Escherichia coli) [µg/mL] | MIC (Staphylococcus aureus) [µg/mL] | MIC [5] [µg/mL] | MIC [6] [µg/mL] | MIC [8] [µg/mL] | Survival rate ([10]; 100 mg/Kg) [%] | Survival rate ([10]; 200 mg/Kg) [%] | Survival rate ([10]; 300 mg/Kg) [%] | Survival rate ([10]; 400 mg/Kg) [%] | Survival rate ([11]; 150 mg/Kg) [%] | Survival rate ([11]; 200 mg/Kg) [%] | Survival rate ([11]; 350 mg/Kg) [%] | Survival rate ([11]; 400 mg/Kg) [%] | further results
CCC(=O)OC1C=CC=CCC(C)OC(=O)CC(OC(=O)CC)C(OC)C(OC2OC(C)C(OC3CC(C)(OCSC)C(OC(=O)CC)C(C)O3)C(N(C)C)C2O)C(CC=O)CC1C (stereo not shown) [9-propionyl-3"-thiomethoxymethyl-SF-837] | 90 | 0/3 | 0/3 | 100 (≈ 108 µM) | 6.25 (≈ 6.72 µM) | < 0.1 | > 50 | 50 (≈ 53.8 µM) | 0.78 (≈ 0.839 µM) | < 0.1 | < 0.1 | < 0.1 | 100 | 100 | 100 | 100 | 30 | 70 | 90 | 100 | MIC [3, 12]: < 0.1 µg/mL; MIC [7, 13]: < 0.1 µg/mL; MIC (Neisseria meningitidis): 6.25 µg/mL (≈ 6.72 µM); MIC (Vibrio coli 34E): 25 µg/mL (≈ 26.9 µM); MIC (Vibrio coli SD-362): 25 µg/mL (≈ 26.9 µM); MIC [9]: 12.5 µg/mL (≈ 13.4 µM)
CCC(=O)OC1CC(=O)OC(C)CC=CC=CC(O)C(C)CC(CC=O)C(OC2OC(C)C(OC3CC(C)(O)C(OC(=O)CC)C(C)O3)C(N(C)C)C2O)C1OC (stereo not shown) [SF-837] | 37.5 | 2/3 | 2/3 | 25 (≈ 30.7 µM) | 25 (≈ 30.7 µM) | < 0.05 | > 50 | 100 (≈ 123 µM) | 0.78 (≈ 0.958 µM) | 0.1 (≈ 0.123 µM) | < 0.05 | < 0.05 | 70 | 90 | 100 | 100 | 20 | 40 | 60 | 90 | MIC [3]: 0.05 µg/mL (≈ 0.0614 µM); MIC [7]: 0.05 µg/mL (≈ 0.0614 µM); MIC (Neisseria meningitidis): 6.25 µg/mL (≈ 7.68 µM); MIC (Vibrio coli 34E): 12.5 µg/mL (≈ 15.4 µM); MIC (Vibrio coli SD-362): > 50 µg/mL; MIC [9]: > 100 µg/mL
CCC(=O)OC1CC(=O)OC(C)CC=CC=CC(OC(C)=O)C(C)CC(CC=O)C(OC2OC(C)C(OC3CC(C)(O)C(OC(=O)CC)C(C)O3)C(N(C)C)C2O)C1OC (stereo not shown) [9-Acetyl-SF-837, reference compound] |  | 0/3 | 1/3 |  |  |  |  |  |  |  |  |  | 100 | 100 | 100 | 100 | 80 | 100 | 100 | 100 | 
CCC(=O)OC1CC(=O)OC(C)CC=CC=CC(OC(C)=O)C(C)CC(CC=O)C(OC2OC(C)C(OC3CC(C)(OCSC)C(OC(=O)CC)C(C)O3)C(N(C)C)C2O)C1OC (stereo not shown) [9-acetyl-3"-thiomethoxymethyl-SF-837] | 90 | 0/3 | 0/3 | 100 (≈ 109 µM) | 6.25 (≈ 6.82 µM) | < 0.1 | > 50 | 50 (≈ 54.6 µM) | 0.78 (≈ 0.851 µM) | < 0.1 | < 0.1 | < 0.1 | 100 | 100 | 100 | 100 | 30 | 80 | 90 | 100 | MIC [3, 12]: < 0.1 µg/mL; MIC [7, 13]: < 0.1 µg/mL; MIC (Neisseria meningitidis): 6.25 µg/mL (≈ 6.82 µM); MIC (Vibrio coli 34E): 25 µg/mL (≈ 27.3 µM); MIC (Vibrio coli SD-362): 25 µg/mL (≈ 27.3 µM); MIC [9]: 12.5 µg/mL (≈ 13.6 µM)
